Where a name gives a salt, the structure may show the parent alone.

Drawing on patent US8367690B2, “Aminopyridine derivatives having aurora a selective inhibitory action” (Vertex Pharmaceuticals Inc., priority 2009, dated 2013), this text covers IC50 for 8 compounds.

Experiment [1] concerns the target T1, His-tagged human Aurora A (Homo sapiens, UniProt O14965).
T1 construct: His (N); made in house; host or cells: Escherichia coli BL21-CodonPlus(DE3)-RIL
T1 sequence (O14965 1-403): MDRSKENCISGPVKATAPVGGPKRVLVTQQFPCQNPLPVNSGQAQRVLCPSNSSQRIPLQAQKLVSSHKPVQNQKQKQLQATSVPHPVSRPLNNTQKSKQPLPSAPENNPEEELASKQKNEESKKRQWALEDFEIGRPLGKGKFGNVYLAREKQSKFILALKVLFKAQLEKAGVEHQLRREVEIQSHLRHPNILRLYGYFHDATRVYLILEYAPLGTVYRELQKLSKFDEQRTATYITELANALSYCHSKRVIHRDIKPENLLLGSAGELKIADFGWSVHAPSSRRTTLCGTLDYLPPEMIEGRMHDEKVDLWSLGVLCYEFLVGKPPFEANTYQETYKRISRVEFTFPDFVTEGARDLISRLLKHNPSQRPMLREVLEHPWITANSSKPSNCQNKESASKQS
In words: Aurora A inhibitory activity (IMAP fluorescence polarization phosphorylation assay). Type of experiment: biochemical. As to conditions: 20 μM ATP, 100 nM peptide substrate, 30° C. for 120 minutes. The text has this: cDNA of N-terminal His-tagged human Aurora A was integrated into an expression vector, which was then highly expressed in Escherichia coli BL21-CodonPlus(DE3)-RIL cells. The Escherichia coli was harvested and lysed, and then the His-tagged human Aurora A protein was applied onto a nickel chelate column and eluted from the column with imidazole. The active fractions were desalted with a desalting column to give a purified enzyme.
For measurement of the activity of Aurora A, the substrate used was a synthetic peptide (5-FAM (5-carboxyfluorescein)-γ-aminobutyric acid-Ala-Leu-Arg-Arg-Ala-Ser-Leu-Gly-NH2) (SEQ.ID.NO.:1), which was purchased from Toray Research Center, Inc.
For the phosphorylation reaction, the method by Upstate, Inc. [Kinase Profiler™ Assay Protocols] was referred to, and phosphorylation of the substrate was detected using IMAP® technology (Molecular Devices, Co. Ltd.) (Gaudet E W. et. al, J. Biomol. Screen, 8, 164-175(2003)). Concretely, the phosphorylation reaction and the detection were carried out as follows:
The phosphorylation reaction was conducted using 384 well plate, and the reaction volume was 10 μl/well. The reaction buffer is comprised of 50 mM Tris-chloride buffer (pH 7.4), 15 mM magnesium acetate, and 0.2 mM ethylenediamine-N,N,N′,N′-tetraacetic acid (EDTA). Thereto, the purified Aurora A protein, 100 nM of the peptide substrate, and 20 μM of adenosine 5′-triphosphate (ATP) were added, and then the reaction was carried out at 30° C. for 120 minutes.
Thereafter, in order to terminate and detect the reaction, 30 μl of the IMAP (registered trademark) binding reagent (IMAP Progressive Binding Reagent, R7284) that had been diluted (1:400) in the lx IMAP binding buffer A (IMAP Progressive Binding Buffer A, 5× stock, R7282) was added to each well. The solution stood still for 60 minutes in the dark, and then fluorescence polarization was measured using a high-end microplate reader (excitation wavelength: 485 nm; emission wavelength: 520 nm).
The compound to be tested was added to the reaction system such that a dilution series of the compound in dimethylsulfoxide (DMSO) was prepared, and then 0.5 μL of this solution was added for the testing to each well. Each control well was provided by adding 0.5 μL of DMSO to the well in place of the DMSO solution containing the compound to be tested.
(§1) Using the above method (in the measurement of activity of Aurora B, Method A was used), the results for measurement of the activities of Aurora A and Aurora B were obtained as shown in Table 1. […] Similar results are obtained when Method B is used in the measurement of activity of Aurora B.

Experiment [2] deals with T2, GST-tagged human Aurora B(AurB)/His-tagged human INCENP complex proteins (Homo sapiens, UniProt Q96GD4).
T2 construct: GST; purchased Curia Biosciences, Inc
T2 sequence (Q96GD4 whole entry): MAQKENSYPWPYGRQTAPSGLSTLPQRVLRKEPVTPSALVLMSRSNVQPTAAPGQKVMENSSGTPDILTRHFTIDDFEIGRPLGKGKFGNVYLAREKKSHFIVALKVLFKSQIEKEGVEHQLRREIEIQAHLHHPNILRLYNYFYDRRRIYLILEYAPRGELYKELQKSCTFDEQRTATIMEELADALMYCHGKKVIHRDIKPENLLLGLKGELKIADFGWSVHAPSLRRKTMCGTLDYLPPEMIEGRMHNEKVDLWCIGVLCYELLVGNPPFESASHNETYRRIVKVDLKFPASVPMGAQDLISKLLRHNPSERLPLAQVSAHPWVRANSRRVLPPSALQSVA
T2 sequence (Q9NQS7 803-916 partner limits assumed): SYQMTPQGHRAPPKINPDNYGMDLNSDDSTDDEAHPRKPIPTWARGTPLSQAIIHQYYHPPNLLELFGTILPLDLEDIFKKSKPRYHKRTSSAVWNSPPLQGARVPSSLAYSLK
Kind of experiment: Aurora B inhibitory activity, Method A (IMAP assay development kit). The note with it: 40 μM ATP, 100 nM substrate, 25° C. for 45 minutes. Type of experiment: biochemical. The method, then:
An assay development kit for IMAP (registered trademark) (Aurora B), purchased from Curia Biosciences, Inc., was used for phosphorylation reaction, and the phosphorylation of a substrate was detected using the IMAP technology. The assay development kit used is comprised of an assay buffer, GST-tagged human Aurora B(AurB)/His-tagged human INCENP complex proteins (amino acid sequence: 803-916, AAU04398.1), and an ATP/substrate solution. Using the same, the phosphorylation reaction was conducted in accordance with a partially revised protocol attached to the kit, and then the phosphorylation of the substrate was detected using the IMAP technology.
For the phosphorylation reaction, 384 well plate was used, and the reaction volume was 10 μl/well. The composition of the reaction buffer (assay buffer) is comprised of 20 mM of HEPES buffer (pH 7.4), 0.01% Tween-20, and 2 mM of dithiothreitol (DTT). Thereto, AurB/INCENP complex protein, 100 nM of the substrate, and 40 μM of ATP, and 1 mM of magnesium salt were added, and then the reaction was conducted at 25° C. for 45 minutes. Thereafter, in order to terminate and detect the reaction, 30 μl of the IMAP (registered trademark) binding reagent (IMAP Progressive Binding Reagent, R7284) that had been diluted (1:400) in the lx IMAP binding buffer A (IMAP Progressive Binding Buffer A, 5× stock, R7282) was added to each well. The solution stood still for 60 minutes in the dark, and then fluorescence polarization was measured using a high-end microplate reader (excitation wavelength: 485 nm; emission wavelength: 520 nm).
The compound to be tested was added to the reaction system such that a dilution series of the compound in DMSO was prepared, and then 0.5 μL of this solution was added for the testing to each well. Each control well was provided by adding 0.5 μL of DMSO to the well in place of the DMSO solution containing the compound to be tested.
as §1

Take `Cc1cc(Nc2cc(C3CC3)[nH]n2)nc(N2C[C@H](C(=O)O)C[C@H](C3CCCCC3)C2)n1` (stereo in doubt) [Example 21, (3R*,5R*)-5-cyclohexyl-1-{4-[(3-cyclopropyl-1H-pyrazol-5-yl)amino]-6-methylpyrimidin-2-yl}piperidine-3-carboxylic acid trifluoroacetate]: the values for the concentration for half-maximal inhibition (IC50) in experiment [1] and in experiment [2] were 0.00081 µM and 0.275 µM, respectively.

As to `Cc1cc(Nc2cc[nH]n2)nc(N2C[C@H](C(=O)O)C[C@H](C3CCCCC3)C2)n1` (relative stereo) [Example 13, cis-5-cyclohexyl-1-[4-methyl-6-(1H-pyrazol-5-ylamino)pyrimidin-2-yl]piperidine-3-carboxylic acid trifluoroacetate], the IC50 in experiment [1] was 0.0011 µM; in experiment [2] it was 6.62 µM.

Consider `Cc1cc(Nc2cc[nH]n2)nc(N2C[C@H](NC(=O)OC(C)(C)C)C[C@@H](C(=O)O)C2)n1` (relative stereo) [Example 6, trans-5-[(tert-butoxycarbonyl)amino]-1-[4-methyl-6-(1H-pyrazol-5-ylamino)pyrimidin-2-yl]piperidine-3-carboxylic acid], for which the figures for the IC50 in experiment [1] and in experiment [2] were 0.055 µM and more than 10 µM, respectively.

Take `Cc1cc(Nc2cc[nH]n2)nc(N2C[C@H](C(=O)O)C[C@H](c3ccccc3)C2)n1` (relative stereo) [Example 10, cis-1-[4-methyl-6-(1H-pyrazol-5-ylamino)pyrimidin-2-yl]-5-phenylpiperidine-3-carboxylic acid trifluoroacetate]: the half-inhibitory concentration (IC50) was determined as 0.0078 µM in experiment [1] and 7.91 µM in experiment [2].

Consider `Cc1cc(Nc2cc(C3CC3)[nH]n2)nc(N2C[C@@H](C(=O)O)C[C@@H](C3CCCCC3)C2)n1` (stereo in doubt) [Example 20, (3S*,5S*)-5-cyclohexyl-1-{4-[(3-cyclopropyl-1H-pyrazol-5-yl)amino]-6-methylpyrimidin-2-yl}piperidine-3-carboxylic acid trifluoroacetate], for which the IC50 in experiment [1] is 0.0024 µM; in experiment [2], 1.15 µM.

As for `Cc1cc(Nc2cc(C3CC3)[nH]n2)nc(N2C[C@@H](CC(=O)O)C[C@@H](C3CCCCC3)C2)n1` (stereo in doubt) [Example 24, [(3R*,5S*)-5-cyclohexyl-1-{4-[(3-cyclopropyl-1H-pyrazol-5-yl)amino]-6-methylpyrimidin-2-yl}piperidin-3-yl]acetic acid], the IC50 was less than 0.0003 µM in experiment [1] and 0.35 µM in experiment [2].

Consider `Cc1cc(Nc2cc[nH]n2)nc(N2C[C@@H](NC(=O)OC(C)(C)C)C[C@@H](C(=O)O)C2)n1` (relative stereo) [Example 8, cis-5-[(tert-butoxycarbonyl)amino]-1-[4-methyl-6-(1H-pyrazol-5-ylamino)pyrimidin-2-yl]piperidine-3-carboxylic acid], for which the IC50 was found to be 0.0091 µM in experiment [1] and 7.39 µM in experiment [2].

With `Cc1cc(Nc2cc(C3CC3)[nH]n2)nc(N2C[C@H](CC(=O)O)C[C@H](C3CCCCC3)C2)n1` (stereo in doubt) [Example 23, [(3S*,5R*)-5-cyclohexyl-1-{4-[(3-cyclopropyl-1H-pyrazol-5-yl)amino]-6-methylpyrimidin-2-yl}piperidin-3-yl]acetic acid], the IC50 in experiment [1] turned out to be 0.004 µM; in experiment [2] it was 2.68 µM.
